Measurements as given in patent US9028856B2, “Synergistic pesticide compositions” (priority 2008, dated 2015).

Tests used:
[1] = tested on: Argentine ant, Linepithema humile; test: Knockdown/mortality of ant workers under continuous exposure on treated glazed tile; conditions: for Average % Mortality after 15 min / Average % Mortality after 3 hr / Average % Mortality after 21 hr: Table 34, thiamethoxam/adjuvant in acetone; for toxicity / efficacy of the substance alone (summary in words): Argentine ant, treated glazed tile
Protocol: (§1) Solutions of imidacloprid at 0.5% AI were prepared with and without methyl oleate @0.1, 1.0 and 5.0% in acetone. Treatments were applied using a micropipette to dispense 1 ml of test solution evenly on a 6″×6″ glazed tile. Actual coverage was about 5″×5″ (or 161 cm^2) for easy handling. Treatments were allowed to dry overnight. Ten Argentine ant workers were placed within a fluon or talc-coated PVC ring (φ7.6 cm×H 5.1 cm) under continuous exposure. A small vial filled with a cotton ball soaked in water was added as a drinking source after 3 hours. Treatments were replicated a minimum of three times. Evaluations for ant knockdown/mortality were made at various intervals and at 24 hours after exposure.
as §1, with “MATERIALS AND METHODS: Solutions” for “Solutions”, “linoleate” for “oleate”
as §1, with “MATERIALS AND METHODS: Solutions of” for “Solutions of”, “without methyl palmitate @0.1, 1.0” for “without methyl oleate @0.1, 1.0”, “after exposure. […]” for “after exposure.”

[2] = tested on: susceptible/normal German cockroach (Monheim strain), Blattella germanica; test: Knockdown/mortality of male cockroaches under continuous exposure on treated glazed tile; type: in vivo; conditions: Table 36, thiamethoxam/adjuvant in acetone, glazed tile, Monheim strain
Protocol: Treatments were allowed to dry overnight. […] Treatments were replicated a minimum of three times. […]
Treatments were allowed to dry overnight. […] Treatments were replicated a minimum of three times. Cockroach knockdown/mortality was evaluated at 5 minute intervals for the first 60 minutes after exposure and then at 2, 18 and 24 hours.

[3] = tested on: Odorous House ant, Tapinoma sessile; test: Knockdown/mortality of ant workers under continuous exposure on treated glazed tile; type: in vivo; conditions: Table 35, thiamethoxam/adjuvant in acetone, glazed tile
From the text: Actual coverage was about 5″×5″ (or 161 cm2) for easy handling. Treatments were allowed to dry overnight. […] Treatments were replicated minimum three times.
(§2) Treatments were allowed to dry overnight. […] Treatments were replicated minimum three times.
(§3) Treatments were allowed to dry overnight. […] Treatments were replicated a minimum of three times.
Treatments were allowed to dry overnight. […] Treatments were replicated minimum of three times. […] The results are shown in FIG. 84 (No adjuvant alone treatment was performed).

[4] = tested on: Aedes aegypti mosquito; test: USDA Petri Dish Method, 3 min exposure to treated glazed tile; type: in vivo; conditions: Table 33, thiamethoxam/adjuvant in acetone, glazed tile, 3 min exposure
Protocol: (§4) Treatments were allowed to dry overnight. USDA Petri Dish Method was used as initial screening protocol. Twenty, 4-6 day old female Aedes aegypti mosquitoes were exposed to each treatment for 3 minutes and then moved to a clean untreated white paper index card. Treatments were replicated a minimum of three times. Mosquito knockdown was evaluated at various intervals through 7 hours after exposure. A small cotton ball soaked in sucrose solution was added on the screen top of the petri-dish as a drinking source. Mortality was evaluated at 24 hours after exposure.
MATERIALS AND METHODS: Solutions of resmethrin at 1 and 0.5% AI were prepared with and without adjuvant in acetone. […] USDA Petri Dish Method was used as initial screening protocol. Twenty, 4-6 day old female Aedes aegypti mosquitoes were exposed to each treatment for 3 minutes and then moved to a clean untreated white paper index card. Treatments were replicated a minimum of three times. Mosquito knockdown was evaluated at 3 minute intervals for the first 15 minutes and then at 5 minute intervals for the remainder of an hour. A small cotton ball soaked in sucrose solution was added on the screen top of the petri-dish as a drinking source. Mortality was evaluated at 24 hours after exposure.
as §4, with “6” for “7”
as §4, with “5 minute” for “various”, “for the first hour and then at 2, 4 and 6 hours.” for “through 7 hours after exposure.”
Treatments were allowed to dry overnight. USDA Petri Dish Method was used as initial screening protocol. Twenty, 4-6 day old female Aedes aegypti mosquitoes were exposed to each treatment for 3 minutes and then moved to a clean untreated white paper index card. Treatments were replicated a minimum of three times. Mosquito knockdown was evaluated at 3-5 minute intervals for the first hour. A small cotton ball soaked in sucrose solution was then added on the screen top of the petri-dish as a drinking source. Mortality was evaluated at 24 hours after exposure.
as §4, with “intervals through 2 hours after” for “intervals through 7 hours after”, “solution was then added on” for “solution was added on”
Treatments were allowed to dry overnight. USDA Petri Dish Method was used as initial screening protocol. Twenty, 4-6 day old female Aedes aegypti mosquitoes were exposed to each treatment for 3 minutes and then moved to a clean untreated white paper index card. Treatments were replicated a minimum of three times. Mosquito knockdown was evaluated at various hourly intervals. […]

[5] = tested on: Red Imported Fire ant (RIFA), Solenopsis invicta; test: Knockdown/mortality of ant workers under continuous exposure on treated glazed tile; type: in vivo; conditions: Table 72, β-cyfluthrin study, Red Imported Fire ant; for Average % Mortality after 15 min: glazed tile, continuous exposure, adjuvant = Compound A 1% + Compound B 0.5%
From the text: as §2, §3

[6] = tested on: bait averse/resistant German cockroach (T-164 strain); test: Knockdown/mortality of male cockroaches under continuous exposure on treated glazed tile; type: in vivo, Blattella germanica; conditions: for toxicity / efficacy of the substance alone (summary in words): German cockroach T-164, treated glazed tile

CN1COCN(Cc2cnc(Cl)s2)/C1=N\[N+](=O)[O-] [Thiamethoxam (1%)] was tested, and the “Average % Mortality after 15 min” value ([1]; glazed tile) was 3%, the “Average % Mortality after 3 hr” value ([1]; glazed tile) was 34% and the “Average % Mortality after 21 hr” value ([1]; glazed tile) was 100%. For the same compound, the “Average % Knockdown & Mortality after 30 min” value [2] was 13%, the “Average % Knockdown & Mortality after 60 min” value [2] was 73% and the “Average % Knockdown & Mortality after 90 min” value [2] was 80%. The “Average % Knockdown & Mortality after 3 hr” value [2] was 93%, the “Average % Knockdown & Mortality after 24 hr” value [2] was 100% and the “Average % Knockdown & Mortality after 15 min” value [3] was 0%. The “Average % Knockdown & Mortality after 30 min” value [3] was 0%, the “Average % Knockdown & Mortality after 60 min” value [3] was 0% and the “Average % Knockdown & Mortality after 2 hr” value [3] was 21%. The “Average % Knockdown & Mortality after 20 hr” value [3] was 65%, the “Average % Knockdown & Mortality after 2 hr” value [4] was 2% and the “Average % Knockdown & Mortality after 3 hr” value [4] was 2%. The “Average % Knockdown & Mortality after 7 hr” value [4] was 4% and the “Average % Knockdown & Mortality after 24 hr” value [4] was 4%.
In the case of CN1COCN(Cc2cnc(Cl)s2)/C1=N\[N+](=O)[O-] [Thiamethoxam (0.01%)], the “Average % Mortality after 15 min” value ([1]; glazed tile) is reported as 0%, the “Average % Mortality after 3 hr” value ([1]; glazed tile) is reported as 19% and the “Average % Mortality after 21 hr” value ([1]; glazed tile) is reported as 100%. The “Average % Knockdown & Mortality after 30 min” value [2] was 13%, the “Average % Knockdown & Mortality after 60 min” value [2] was 67% and the “Average % Knockdown & Mortality after 90 min” value [2] was 87%. The “Average % Knockdown & Mortality after 3 hr” value [2] was 100%, the “Average % Knockdown & Mortality after 24 hr” value [2] was 100% and the “Average % Knockdown & Mortality after 15 min” value [3] was 0%. For the same compound, the “Average % Knockdown & Mortality after 30 min” value [3] was 0%, the “Average % Knockdown & Mortality after 60 min” value [3] was 0% and the “Average % Knockdown & Mortality after 2 hr” value [3] was 9%. The “Average % Knockdown & Mortality after 20 hr” value [3] was 71%, the “Average % Knockdown & Mortality after 2 hr” value [4] was 0% and the “Average % Knockdown & Mortality after 3 hr” value [4] was 0%. For the same compound, the “Average % Knockdown & Mortality after 7 hr” value [4] was 0% and the “Average % Knockdown & Mortality after 24 hr” value [4] was 0%.
For CC1(C)C(C=C(Cl)Cl)C1C(=O)OC(C#N)c1ccc(F)c(Oc2ccccc2)c1 (stereo not drawn) [β-cyfluthrin (.001%)], the “Average % Mortality after 15 min” value [5] was 39%, the “Average % Mortality after 30 min” value [5] was 100% and the “Average % Mortality after 60 min” value [5] was 100%. For the same compound, the “Average % Mortality after 24 hr” value [5] was 100%.
For CC1(C)C(C=C(Cl)Cl)C1C(=O)OC(C#N)c1ccc(F)c(Oc2ccccc2)c1 (stereo not drawn) [β-cyfluthrin (.005%)], the “Average % Mortality after 15 min” value [5] was 100%, the “Average % Mortality after 30 min” value [5] was 100% and the “Average % Mortality after 60 min” value [5] was 100%. For the same compound, the “Average % Mortality after 24 hr” value [5] was 100%.
With CN1COCN(Cc2cnc(Cl)s2)/C1=N\[N+](=O)[O-] [Thiamethoxam (0.1%)] the “Average % Mortality after 15 min” value ([1]; glazed tile) was 12%, the “Average % Mortality after 3 hr” value ([1]; glazed tile) was 46% and the “Average % Mortality after 21 hr” value ([1]; glazed tile) was 100%. For the same compound, the “Average % Knockdown & Mortality after 30 min” value [2] was 7%, the “Average % Knockdown & Mortality after 60 min” value [2] was 73% and the “Average % Knockdown & Mortality after 90 min” value [2] was 93%. For the same compound, the “Average % Knockdown & Mortality after 3 hr” value [2] was 100%, the “Average % Knockdown & Mortality after 24 hr” value [2] was 100% and the “Average % Knockdown & Mortality after 15 min” value [3] was 0%. The “Average % Knockdown & Mortality after 30 min” value [3] was 0%, the “Average % Knockdown & Mortality after 60 min” value [3] was 0% and the “Average % Knockdown & Mortality after 2 hr” value [3] was 3%. For the same compound, the “Average % Knockdown & Mortality after 20 hr” value [3] was 33%, the “Average % Knockdown & Mortality after 2 hr” value [4] was 0% and the “Average % Knockdown & Mortality after 3 hr” value [4] was 0%. The “Average % Knockdown & Mortality after 7 hr” value [4] was 0% and the “Average % Knockdown & Mortality after 24 hr” value [4] was 0%.
In the case of c1ccc(Cc2ccccc2)cc1 [Diphenyl methane, diphenyl methane], the “toxicity / efficacy of the substance alone (summary in words)” value (“toxicity / efficacy” for short) [1] is reported as “not toxic”, the “Average % Knockdown & Mortality after 2 hr” value ([1]; Table 20 (Ex. 17), glazed tile, continuous exposure) is reported as 0% and the “Average % Knockdown & Mortality after 4 hr” value ([1]; Table 20 (Ex. 17), glazed tile, continuous exposure, listed as Diphenyl methane (DPM) (0.1%)) is reported as 13%. The “Average % Knockdown & Mortality after 4 hr” value ([1]; Table 20 (Ex. 17), glazed tile, continuous exposure, listed as Diphenyl methane (DPM) (5%)) was 0%, the “toxicity / efficacy” value [6] was “not toxic” and the “Average % Knockdown & Mortality after 3 hr” value ([6]; Table 21 (Ex. 18), glazed tile, continuous exposure) was 0%.
In the case of CCCCCCCCCCCCCCCC(=O)OC [Methyl palmitate, methyl palmitate], the “toxicity / efficacy” value [1] is reported as “not toxic”, the “Average % Knockdown & Mortality after 3 hr” value ([1]; Table 12 (Ex. 9), glazed tile, continuous exposure) is reported as 0% and the “Average % Knockdown & Mortality after 7 hr” value ([1]; Table 12 (Ex. 9), glazed tile, continuous exposure, listed as Methyl Palmitate (1%)) is reported as 0%. The “Average % Knockdown & Mortality after 7 hr” value ([1]; Table 12 (Ex. 9), glazed tile, continuous exposure, listed as Methyl Palmitate (5%)) was 7%, the “toxicity / efficacy” value [6] was “not toxic” and the “Average % Knockdown & Mortality after 4 hr” value ([6]; Table 13 (Ex. 10), glazed tile, continuous exposure) was 0%.
